Measurements published in PMC11815855, “Exploring the Structure–Activity Relationships of Albumin-Targeted Picoplatin-Based Platinum(IV) Prodrugs” (Inorganic Chemistry, 2025).
Marks after values point to notes of the source that are not given here.

Tests used:
horse heart CytC = target: T1, horse heart CytC (Equus caballus, UniProt P00004); test: Reduction with cytochrome C and NADH, UHPLC; format: biochemical; conditions: 700 μM, 0.1 equiv CytC and 10 equiv NADH, 50 mM PB pH 6.0, 37 °C
T1 construct: 0.1 equiv horse heart CytC; from tissue; host or cells: horse heart
T1 sequence (P00004 whole entry): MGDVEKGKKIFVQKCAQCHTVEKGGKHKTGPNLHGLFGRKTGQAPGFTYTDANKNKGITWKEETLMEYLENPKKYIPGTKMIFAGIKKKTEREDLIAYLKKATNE
From the text: (§1) To explain the rather unusual in vivo findings, especially with respect to Pico-Mal, we hypothesized that inefficient reductive release of the platinum(II) core from albumin due to steric hindrance of the 2-picoline could provide a plausible explanation for the lack of antitumor activity despite a favorable pharmacokinetic profile. […] To gain insights into whether the molecular weight and thus steric demands of the reducing agent impact the reduction of picoplatin(IV) derivatives, Pico-Succ and the reference complex Cis-Succ were analyzed in the presence of cytochrome C (CytC; ∼12,000 g/mol) or AA (176 g/mol). Therefore, Pico-Succ and Cis-Succ (for synthesis and ^1H NMR characterization, see experimental part and Scheme S1) were coincubated at pH 6.0 with 0.1 equiv CytC[60] and 10 equiv reduced NADH or with 10 equiv AA at 37 °C over 4 h, and the reduction kinetics were compared relatively. The amount of remaining intact platinum(IV) complex at given time points was measured via UHPLC (Figure 6). […]
(§2) PB (50 mM, pH 6.0) containing 700 μM Pt compound was incubated at 37 °C with the addition of 0.1 equiv horse heart CytC and 10 equiv reduced NADH or with 10 equiv L-ascorbic acid. The reaction was monitored on a Thermo Scientific Dionex UltiMate 3000 UHPLC-system using a Waters Acquity UPLC BEH peptide C18 1.7 μm 2.1 × 100 mm column. […]

[1] = Reduction with 10 equiv AA at pH 6.0 and 37 °C, UHPLC; format: physicochemical; conditions: 700 μM, 50 mM PB pH 6.0, 37 °C
From the text: as §1, §2

CT26 colon cancer cells [2] = test: Colony formation (clonogenic) assay, CT26, 7 days; format: cell-based, murine; conditions: 7 days drug exposure
From the text: (§3) For the cell culture assays, the human ovarian model A2780/wt and its corresponding cisplatin-resistant subline A2780/cis (both purchased from Sigma and cultured in RPMI1640 medium), the human colorectal cancer model HCT116 (cultured in McCoy′s medium), and the murine (Balb/c) colorectal cancer model CT26 (cultured in DMEM/F-12 (1:1) medium) were used. The colon cancer models were purchased from the American Type Culture Collection (ATCC). The media were supplemented with 10% FCS (purchased from PAA Linz, Austria). To maintain drug resistance of A2780/cis, the subline was cultivated under continuous selection pressure (1 μM cisplatin). The selection drug was removed 1 week before the experiments were performed. Cell cultures were maintained at 37 °C in humidified atmosphere containing 5% CO2. All cultures were free of antibiotics and regularly checked for mycoplasma contamination. All cell culture media and reagents were purchased from Sigma-Aldrich Austria. All investigated drugs were dissolved in either water (oxaliplatin, carboplatin) or DMF before further dilution in cell culture medium. DMF concentrations were always below 0.5%.
(§4) Then, cells were exposed to the indicated drugs in rising concentrations. After 7 days, the cells were fixed with methanol for 20 min at 4 °C and stained with crystal violet 5 (0.01% in PBS). The fluorescence of the crystal violet was detected by the Typhoon scanner (Typhoon TRIO Variable Mode Imager, GE Healthcare Life Sciences) after excitation by the red laser (633 nm). Quantification was done with ImageJ software.

[3] = test system: A2780/cis ovarian cancer cells; test: MTT-based cell viability assay, A2780/cis (cisplatin-resistant), 72 h; set-up: species or system human; conditions: for IC50: 72 h drug exposure, cisplatin-resistant subline, means of independent experiments; for IC50 / IC50 in A2780/cis compared to A2780/wt: MTT-based assay; for RF (resistance factor): fold-change between IC50 values of A2780/cis:A2780/wt; for RF (resistance factor) / IC50 in A2780/cis compared to A2780/wt: 72 h
From the text: as §3
(§5) Subsequently, the cells were incubated with the tested compounds in rising concentrations. […] The received data were visualized as dose–response curves by Graph Pad Prism 5 software (Graph Pad software, USA).

[4] = Reduction kinetics of platinum(IV)-succinimide complexes with AA, UHPLC; format: physicochemical; conditions: 1 mM, 150 mM PB pH 7.4, 20 °C
Method: (§6) Platinum(IV) prodrugs need to be reduced in the tumor environment to release the cytotoxic platinum(II) complexes. Thus, the reduction properties of Pico-Succ, PicoCarbo-Succ, and PicoOxali-Succ were investigated. As mentioned above, succinimide complexes were used for these studies to avoid competitive hydrolysis of the maleimide moiety. All platinum(IV)-succinimide complexes were incubated in both the absence and presence of a 10-fold excess L-ascorbic acid (AA) in PB at pH 7.4 and 20 °C over 6 h. The amount of remaining intact platinum(IV) complex at given time points was measured via ultrahigh performance liquid chromatography (UHPLC), as shown in Figure 2. Pico-Succ was reduced extremely fast, with only traces of the original complex left in the first measurement after ∼5 min of incubation. Even with equimolar amounts of AA, 90% of Pico-Succ was already reduced after ∼5 min (Figure S6). This level of reductive instability is exceptionally high, even when compared to the “fast” reducing cisplatin(IV) prodrugs, which show a complete conversion after ∼10 h in the presence of 10 equiv AA.[41],[53]
(§7) PB (150 mM, pH 7.4) containing 1 mM Pt compound was incubated at 20 °C with and without the addition of 10 equiv L-ascorbic acid or reduced GSH. The reaction was monitored on a Thermo Scientific Dionex UltiMate 3000 UHPLC-system using a Waters Acquity UPLC BEH C18 1.7 μm, 3.0 × 50 mm column. Milli-Q water containing 0.1% formic acid and acetonitrile containing 0.1% formic acid were used as eluents. A gradient of 5–95% over 5 min was used with a flow of 0.6 mL/min. To evaluate the reaction process, we used the peak area of the parental complex.

[5] = Reduction of platinum(IV)-succinimide complexes with 10 equiv GSH, UHPLC; format: physicochemical; conditions: 1 mM, 150 mM PB pH 7.4, 20 °C, 5 min
From the text: It is well-known that platinum(IV) complexes derived from, e.g., oxaliplatin or carboplatin, bearing leaving groups other than chlorido ligands, have distinctly slower reduction rates compared to cisplatin(IV) analogs.[54] This can be explained by a bridging interaction between the chlorido ligands and the reducing agent, which facilitates electron transfer to the platinum center.[55] […] The reductive behavior was also investigated in the presence of 10 equiv GSH in coherence with the above investigated interactions of platinum(II) with GSH (Figure S8).
as §7

[6] = Hydrolytic stability of platinum(IV)-succinimide complexes in PB without AA, UHPLC; format: physicochemical; conditions: 1 mM, 150 mM PB pH 7.4, 20 °C
Method: as §6
PB (150 mM, pH 7.4) containing 1 mM Pt compound was incubated at 20 °C with and without the addition of 10 equiv L-ascorbic acid or reduced GSH. The reaction was monitored on a Thermo Scientific Dionex UltiMate 3000 UHPLC-system using a Waters Acquity UPLC BEH C18 1.7 μm, 3.0 × 50 mm column. […]

[7] = test system: HCT116 colon cancer cells; test: MTT-based cell viability assay, HCT116, 72 h; set-up: species or system human; conditions: 72 h drug exposure
From the text: as §3, §5

albumin = albumin (Bos taurus, UniProt P02769); test: Albumin binding and stability in phosphate-buffered FCS, SEC-ICP-MS; conditions: 50 μM in FCS (150 mM PB, pH 7.4), 37 °C, 1 h
Sequence of albumin (P02769 25-607): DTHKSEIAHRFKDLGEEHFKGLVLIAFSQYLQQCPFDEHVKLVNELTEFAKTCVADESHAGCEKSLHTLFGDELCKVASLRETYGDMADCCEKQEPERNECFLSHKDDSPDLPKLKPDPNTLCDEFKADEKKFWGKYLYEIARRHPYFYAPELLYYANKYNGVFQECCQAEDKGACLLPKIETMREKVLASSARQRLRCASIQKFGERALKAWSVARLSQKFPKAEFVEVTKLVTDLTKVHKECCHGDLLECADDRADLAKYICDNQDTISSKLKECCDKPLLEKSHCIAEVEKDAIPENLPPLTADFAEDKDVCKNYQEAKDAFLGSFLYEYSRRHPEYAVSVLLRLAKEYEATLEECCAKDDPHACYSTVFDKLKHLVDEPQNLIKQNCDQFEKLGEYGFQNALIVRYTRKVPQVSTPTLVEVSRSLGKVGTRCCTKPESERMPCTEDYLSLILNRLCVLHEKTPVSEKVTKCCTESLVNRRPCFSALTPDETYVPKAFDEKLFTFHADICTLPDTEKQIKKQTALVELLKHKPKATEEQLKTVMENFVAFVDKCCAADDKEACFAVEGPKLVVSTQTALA
Method: FCS was purchased from Sigma-Aldrich and buffered with 150 mM phosphate pH 7.4 in order to guarantee a stable pH. The platinum(IV) complexes were dissolved in 150 mM PB (pH 7.4) at a concentration of 5 mM and diluted 1:100 in buffered serum to obtain a final concentration of 50 μM. […] Between each sample, a pure water blank was measured. […] Oxygen (purity 5.5, Messer Austria GmbH, Gumpoldskirchen, Austria) was used as the reaction gas.

CT26 colon cancer cells [8] = test: MTT-based cell viability assay, CT26, 72 h; set-up: species or system murine; conditions: 72 h drug exposure
From the text: as §3, §5

[9] = test system: A2780/wt ovarian cancer cells; test: MTT-based cell viability assay, A2780/wt, 72 h; set-up: species or system human; conditions: 72 h drug exposure, means of independent experiments
From the text: as §3, §5

[10] = test system: HCT116 colon cancer cells; test: Colony formation (clonogenic) assay, HCT116, 7 days; format: cell-based, human; conditions: for IC50: 7 days drug exposure, clonogenic assay
From the text: as §3, §4

CT26 allografts [11] = conditions: carboplatin 60 mg/kg i.v. once a week for two weeks, Figure S11
Method: days after first treatment
Balb/c mice. Mice were treated i.v. with the maximal tolerated dose of the respective drug and compared
to the solvent control. […] Oxaliplatin (9
mg/kg) was applied twice a week for two weeks. Tumor volume data are presented as means ± SEM. The
overall survival is depicted via a Kaplan –Meier curve.

[12] = Interaction of platinum(II) complexes with 10 equiv GSH, NMR; format: physicochemical; conditions: 1 mM complex, 10% D2O/90% PBS pH 7.4, 37 °C, 8 h, 1H NMR
Method: The amount of remaining platinum(II) complex was monitored via ^1H NMR spectroscopy and, particularly for ^15N-cisplatin, via [^1H, ^15N] heteronuclear single quantum coherence (HSQC) NMR spectroscopy (Figure 1).[47]
(§8) An 1 mM solution of Pt compound was incubated in a mixture of 90% PB or PBS (150 mM, pH 7.4) and 10% D2O at 37 °C with and without the addition of 10 equiv GSH. The reaction was monitored with ^1H or [^1H, ^15N] […] The reference spectrum was shifted with a value of −0.5 ppm compared to the original ppm value calibrated to D2O before overlay with a spectrum at a single time point. In case of ^15N-cisplatin, the cross-peak of the parental complex in [^1H, ^15N] HSQC at time point 0 h was used as reference, and spectral overlay was achieved by shifting the 2D spectra at all given time points (2, 4, 6, and 8 h) with vertical steps of +14 ppm compared to the original ^15N NMR ppm value of the parental complex.

[13] = Stability of platinum(II) complexes in PBS or PB, NMR; format: physicochemical; conditions: 1 mM, pH 7.4, 37 °C, 8 h incubation, no GSH
Method: as §8

CT26 allografts [14] = conditions: oxaliplatin 9 mg/kg i.v. twice a week for two weeks, Figure S11 ref Schueffl et al, Chem. Sci. 2021, 12, 12587-12599; cited from earlier work

CC(=O)[O][Pt]([Cl])([Cl])[O]C(=O)NCCN1C(=O)CCC1=O.Cc1ccccn1.N [Pico-Succ, (OC-6-21)[Acetato(ammine)(dichlorido)(1-(2-isocyanatoethyl)pyrrolidine-2,5-dione)(2-methylpyridine)platinum(IV)]]
time to complete reduction with CytC (horse heart CytC): 1 h | reduction with AA [1]: immediate reduction | IC50 (CT26 colon cancer cells [2]): 30.9 µM | IC50 [3]: > 100 µM | RF (resistance factor) [3]: >1.6 | original complex left after ∼5 min with 10 equiv AA ([4]; 10 equiv AA, first measurement ∼5 min): only traces | complex reduced after ∼5 min with equimolar AA ([4]; equimolar AA, ∼5 min): 90% | original compound remaining after 5 min with 10 equiv GSH [5]: only traces | time stable in absence of AA [6]: over 6 h | IC50 [7]: > 100 µM | intact platinum(IV) complex left after 1 h in FCS (albumin): only traces | IC50 (CT26 colon cancer cells [8]): 77.8 µM | IC50 [9]: 63.2 µM | IC50 [10]: 32.1 µM | reduction of IC50 values, 7 days vs 72 h ([10]; HCT116 and CT26, colony formation 7 days compared to MTT 72 h): 2–3 fold

N.N.O=C([O-])C1(C(=O)[O-])CCC1.[Pt+2] [carboplatin]
response of CT26 allografts to carboplatin (CT26 allografts [11]): highly carboplatin-resistant | IC50 (CT26 colon cancer cells [2]): 4.37 µM | IC50 in A2780/cis compared to A2780/wt [3]: 2.3 fold | IC50 [3]: 74.9 µM | RF (resistance factor) [3]: 2.3**** | intact platinum(II) complex left after 8 h with GSH [12]: ~60% | complex left in 10% D2O/90% PBS [13]: > 95% | IC50 [7]: 63.2 µM | IC50 (CT26 colon cancer cells [8]): 22.1 µM | IC50 [9]: 32 µM | IC50 [10]: 7.41 µM

O=C1[O][Pt]2([NH][C@@H]3CCCC[C@H]3[NH]2)[O]C1=O [oxaliplatin]
IC50 (CT26 colon cancer cells [2]): 1.81 µM | IC50 in A2780/cis compared to A2780/wt [3]: 1.1 fold | IC50 [3]: 0.68 µM | RF (resistance factor) [3]: 1.1^ns | complex left in 10% D2O/90% PB [13]: > 90% | complex left in 10% D2O/90% PBS [13]: readily degraded | IC50 [7]: 2.19 µM | response of CT26 allografts to oxaliplatin (CT26 allografts [14]): only moderately responsive | IC50 (CT26 colon cancer cells [8]): 1.97 µM | IC50 [9]: 0.63 µM | IC50 [10]: 1.46 µM

(OC-6-44)[Acetatodiamminedichlorido[2-(2,5-dioxopyrrolidin-1-yl)butyl)carbamato]platinum(IV)] [Cis-Succ, reference compound]
time to complete reduction with CytC (horse heart CytC): 4 h | reduction with AA after 4 h ([1]; 4 h): ~40%
